# Experimental data as given in the supplement of paper PMC12613149.
# Tests used:
# [1] = collision cross section (TIMS, N2 drift gas) of the primary ion; higher = larger gas-phase ion size
# [2] = reversed-phase LC retention time (C18, 15 min MeOH gradient); higher = more hydrophobic / later elution
# [3] = ionization mode: ESI+, ion species: [M+H]+
# [4] = ionization mode: ESI-, ion species: [M-H]-
# [5] = ionization mode: ESI+, ion species: [M]+
Structure (SMILES),"collision cross section [1, 3]","reversed-phase LC retention time [2, 3]","collision cross section [1, 4]","reversed-phase LC retention time [2, 4]","collision cross section [1, 5]","reversed-phase LC retention time [2, 5]"
CN(C)C(=O)Nc1ccccc1 [Fenuron],132.76 Å²,8.82 min,–,–,–,–
"CN(C)C(=O)Nc1ccc(Cl)c(Cl)c1 [1-(3,4-Dichlorophenyl)-3,3-dimethylurea]",149.81 Å²,13 min,146.03 Å²,13.2 min,–,–
Nc1cccc2cc(S(=O)(=O)O)ccc12 [5-Aminonaphthalene-2-sulfonic acid],–,–,147.46 Å²,4.88 min,–,–
CC(=NC#N)N(C)Cc1ccc(Cl)nc1 [Acetamiprid],153.22 Å²,9.29 min,148.19 Å²,9.38 min,–,–
CCCCOCCOP(=O)(OCCOCCCC)OCCOCCCC [Tri(butoxyethyl)phosphate],198.12 Å²,16.7 min,–,–,–,–
Cn1c(=O)c2[nH]cnc2n(C)c1=O [Theophyllin],135.99 Å²,6.64 min,–,–,–,–
CCNc1nc(Cl)nc(NC(C)C)n1 [Atrazine],148.84 Å²,12.8 min,–,–,–,–
C[C@@H](O)CCCCn1c(=O)c2c(ncn2C)n(C)c1=O [Lisofylline],162.42 Å²,10.3 min,–,–,–,–
Oc1c(Br)cc(Cl)cc1Cc1cc(Cl)cc(Br)c1O [Bromochlorophen],–,–,171.71 Å²,16.3 min,–,–
Cc1c(C=O)c(=O)n(-c2ccccc2)n1C [4-Formyl-antipyrine],144.44 Å²,7.67 min,–,–,–,–
CCC1=C(C)CN(C(=O)NCCc2ccc(S(=O)(=O)NC(=O)NC3CCC(C)CC3)cc2)C1=O (stereo not given) [Glimepiride],216.66 Å²,15.3 min,215.02 Å²,14.3 min,–,–
COc1ccc([C@@H]2Sc3ccccc3N(CCN(C)C)C(=O)[C@@H]2OC(C)=O)cc1 [Diltiazem],198.45 Å²,12.1 min,–,–,–,–
CCCCCCCCCCCCCCCCCC[N+](C)(C)CCCCCCCCCCCCCCCCCC [Dimethyldioctadecylammonium],–,–,–,–,272.56 Å²,21.1 min
O=S(=O)(O)C(F)(F)F [Trifluoromethanesulfonic acid],–,–,108.15 Å²,1.37 min,–,–
NCC1(CC(=O)O)CCCCC1 [Gabapentin],139.22 Å²,7.2 min,–,–,–,–
CC(C(=O)O)c1cccc(C(=O)c2ccccc2)c1 (stereo not given) [Ketoprofen],158.88 Å²,13.5 min,–,–,–,–
NC(N)=NC(=O)Cc1c(Cl)cccc1Cl [Guanfacine],152.13 Å²,9.65 min,–,–,–,–
CCc1cccc(C)c1N(C(=O)CS(=O)(=O)O)C(C)COC (stereo not given) [Metolachlor ESA],170.74 Å²,12.1 min,173.48 Å²,12 min,–,–
CCC1OC(=O)C(C)C(OC2CC(C)(OC)C(O)C(C)O2)C(C)C(OC2OC(C)CC(N(C)C)C2O)C(C)(O)CC(C)CN(C)C(C)C(O)C1(C)O (stereo not given) [Azithromycin],264.86 Å²,10.9 min,–,–,–,–
CCCCCCOC(=O)c1ccccc1C(=O)OCCCCCC [Di-n-hexyl phthalate],195.44 Å²,18.2 min,–,–,–,–
CCC(C)OC(=O)N1CCCCC1CCO (stereo not given) [Icaridin],152.87 Å²,13.6 min,–,–,–,–
CCNc1nc(NCC)[nH]c(=O)n1 [Simazine 2-Hydroxy],140.79 Å²,7.22 min,140.22 Å²,8.55 min,–,–
Cc1c(N(C)C)c(=O)n(-c2ccccc2)n1C [Dimethylaminophenazone],151.98 Å²,6.95 min,–,–,–,–
CN(C)CC(c1ccc(O)cc1)C1(O)CCCCC1 (stereo not given) [Venlafaxine-O-desmethyl],166.78 Å²,8.96 min,172.85 Å²,11.3 min,–,–
